Reference: paper PMC10461229 (Journal of Medicinal Chemistry, 2023)

Tested on: wild-type (WT) Mtb Erdman
Test: microbe, parasite or virus in culture
Assay type: cell-based, Mycobacterium tuberculosis
Conditions: Mycobacterium tuberculosis, ERDMAN, read-out: MABA mean IC50 ± SD

Question: `O=C(O)C1CSc2c(C3CC3)c(-c3cn(-c4cccc5ccccc45)nn3)cc(=O)n21` (racemic) [Compound 15a, (±) 8-Cyclopropyl-7-(1-(naphthalen-1-yl)-1H-1,2,3-triazol-4-yl)-5-oxo-2,3-dihydro-5H-thiazolo[3,2-a]pyridine-3-carboxylic Acid] was tested. Which IC50 did it give?
Answer: > 25 µM

Question: For `O=C(O)C1CSc2c(C3CC3)c(-c3cn(-c4ccc5ccccc5c4)nn3)cc(=O)n21` (racemic) [Compound 15c, (±) 8-Cyclopropyl-7-(1-(naphthalen-2-yl)-1H-1,2,3-triazol-4-yl)-5-oxo-2,3-dihydro-5H-thiazolo[3,2-a]pyridine-3-carboxylic Acid], which IC50 is on record?
Answer: 7.37 ± 0.83 µM

Question: `O=C(O)C1CSc2c(C3CC3)c(CSc3nnc(-c4ccc5ccccc5c4)o3)cc(=O)n21` (racemic) [Compound 8d, (±) 8-Cyclopropyl-7-(((5-(naphthalen-2-yl)-1,3,4-oxadiazol-2-yl)thio)methyl)-5-oxo-2,3-dihydro-5H-thiazolo[3,2-a]pyridine-3-carboxylic Acid] was tested. Which IC50 did it give?
Answer: 3.5 µM

Question: Which IC50 does the source give for `O=C(O)C1CSc2c(C3CC3)c(-c3cc(-c4cccc(C(F)(F)F)c4)no3)cc(=O)n21` (racemic) [Compound 17b, (±) 8-Cyclopropyl-5-oxo-7-(3-(3-(trifluoromethyl)phenyl)isoxazol-5-yl)-2,3-dihydro-5H-thiazolo[3,2-a]pyridine-3-carboxylic Acid] here?
Answer: 3.04 ± 0.58 µM

Question: For `O=C(O)C1CSc2c(C3CC3)c(-c3cc(-c4ccnc5ccccc45)no3)cc(=O)n21` (racemic) [Compound 17p, (±) 8-Cyclopropyl-5-oxo-7-(3-(quinolin-4-yl)isoxazol-5-yl)-2,3-dihydro-5H-thiazolo[3,2-a]pyridine-3-carboxylic Acid], which IC50 is on record?
Answer: 11 ± 1.48 µM

Question: With `O=C(O)C1CSc2c(C3CC3)c(CSc3nnc(Cc4ccc5ccccc5c4)o3)cc(=O)n21` (racemic) [Compound 8e, (±) 8-Cyclopropyl-7-(((5-(naphthalen-2-ylmethyl)-1,3,4-oxadiazol-2-yl)thio)methyl)-5-oxo-2,3-dihydro-5H-thiazolo[3,2-a]pyridine-3-carboxylic Acid] as the compound, how does the IC50 read?
Answer: > 25 µM

Question: How did the IC50 turn out when `O=C(O)C1CSc2c(C3CC3)c(CSc3nnc(-c4ccc([N+](=O)[O-])cc4)o3)cc(=O)n21` (racemic) [Compound 8g, (±) 8-Cyclopropyl-7-(((5-(4-nitrophenyl)-1,3,4-oxadiazol-2-yl)thio)methyl)-5-oxo-2,3-dihydro-5H-thiazolo[3,2-a]pyridine-3-carboxylic Acid] was run?
Answer: > 25 µM

Question: For `O=C(O)C1CSc2c(C3CC3)c(CSc3nnc(-c4cccs4)o3)cc(=O)n21` (racemic) [Compound 8j, (±) 8-Cyclopropyl-5-oxo-7-(((5-(thiophen-2-yl)-1,3,4-oxadiazol-2-yl)thio)methyl)-2,3-dihydro-5H-thiazolo[3,2-a]pyridine-3-carboxylic Acid], which IC50 is on record?
Answer: > 25 µM

Question: `O=C(O)C1CSc2c(C3CC3)c(-c3cc(-c4cc(F)cc(F)c4)no3)cc(=O)n21` (racemic) [Compound 17l, (±) 8-Cyclopropyl-7-(3-(3,5-difluorophenyl)isoxazol-5-yl)-5-oxo-2,3-dihydro-5H-thiazolo[3,2-a]pyridine-3-carboxylic Acid] was tested. Which IC50 did it give?
Answer: 23.6 ± 1.51 µM

Question: Which IC50 does the source give for `O=C(O)C1CSc2c(C3CC3)c(CSc3nnc(Cc4cccc5ccccc45)o3)cc(=O)n21` (racemic) [Compound 8c, (±) 8-Cyclopropyl-7-(((5-(naphthalen-1-ylmethyl)-1,3,4-oxadiazol-2-yl)thio)methyl)-5-oxo-2,3-dihydro-5H-thiazolo[3,2-a]pyridine-3-carboxylic Acid] here?
Answer: > 25 µM

Question: How did the IC50 turn out when `O=C(O)C1CSc2c(C3CC3)c(-c3cc(-c4cccs4)no3)cc(=O)n21` (racemic) [Compound 17n, (±) 8-Cyclopropyl-5-oxo-7-(3-(thiophen-2-yl)isoxazol-5-yl)-2,3-dihydro-5H-thiazolo[3,2-a]pyridine-3-carboxylic Acid] was run?
Answer: > 25 µM

Question: With `O=C(O)C1CSc2c(C3CC3)c(CSc3nnc(-c4cccc5ccccc45)o3)cc(=O)n21` (racemic) [Compound 8a, (±) 8-Cyclopropyl-7-(((5-(naphthalen-1-yl)-1,3,4-oxadiazol-2-yl)thio)methyl)-5-oxo-2,3-dihydro-5H-thiazolo[3,2-a]pyridine-3-carboxylic Acid] as the compound, how does the IC50 read?
Answer: 12.6 ± 2.16 µM

Question: For `O=C(O)C1CSc2c(C3CC3)c(-c3cc(-c4ccc([N+](=O)[O-])cc4)no3)cc(=O)n21` (racemic) [Compound 17f, (±) 8-Cyclopropyl-7-(3-(4-nitrophenyl)isoxazol-5-yl)-5-oxo-2,3-dihydro-5H-thiazolo[3,2-a]pyridine-3-carboxylic Acid], which IC50 is on record?
Answer: 9.27 ± 0.62 µM

Question: For `O=C(O)C1CSc2c(C3CC3)c(CSc3nnc(COc4ccc(F)cc4)o3)cc(=O)n21` (racemic) [Compound 8l, (±) 8-Cyclopropyl-7-(((5-((4-fluorophenoxy)methyl)-1,3,4-oxadiazol-2-yl)thio)methyl)-5-oxo-2,3-dihydro-5H-thiazolo[3,2-a]pyridine-3-carboxylic Acid], which IC50 is on record?
Answer: > 25 µM

Question: With `COc1ccc(-c2cc(-c3cc(=O)n4c(c3C3CC3)SCC4C(=O)O)on2)cc1` (racemic) [Compound 17e, (±) 8-Cyclopropyl-7-(3-(4-methoxyphenyl)isoxazol-5-yl)-5-oxo-2,3-dihydro-5H-thiazolo[3,2-a]pyridine-3-carboxylic Acid] as the compound, how does the IC50 read?
Answer: 2.62 ± 0.28 µM

Question: For `O=C(O)C1CSc2c(C3CC3)c(-c3cc(-c4ccc(F)c5ccccc45)no3)cc(=O)n21` (racemic) [Compound 17m, (±) 8-Cyclopropyl-7-(3-(4-fluoronaphthalen-1-yl)isoxazol-5-yl)-5-oxo-2,3-dihydro-5H-thiazolo[3,2-a]pyridine-3-carboxylic Acid], which IC50 is on record?
Answer: 4 ± 0.67 µM

Question: For `O=C(O)C1CSc2c(C3CC3)c(-c3cc(-c4ccc5c(c4)OCO5)no3)cc(=O)n21` (racemic) [Compound 17o, (±) 7-(3-(Benzo[d][1,3]dioxol-5-yl)isoxazol-5-yl)-8-cyclopropyl-5-oxo-2,3-dihydro-5H-thiazolo[3,2-a]pyridine-3-carboxylic Acid], which IC50 is on record?
Answer: 2.02 ± 0.46 µM

Question: How did the IC50 turn out when `CC(C)(C)c1cc(-c2cc(-c3cc(=O)n4c(c3C3CC3)SCC4C(=O)O)on2)cc(C(C)(C)C)c1` (racemic) [Compound 17k, (±) 8-Cyclopropyl-7-(3-(3,5-di-tert-butylphenyl)isoxazol-5-yl)-5-oxo-2,3-dihydro-5H-thiazolo[3,2-a]pyridine-3-carboxylic Acid] was run?
Answer: 3.13 ± 0.16 µM

Question: With `O=C(O)C1CSc2c(C3CC3)c(CSc3nnc(-c4ccncc4)o3)cc(=O)n21` (racemic) [Compound 8i, (±) 8-Cyclopropyl-5-oxo-7-(((5-(pyridin-4-yl)-1,3,4-oxadiazol-2-yl)thio)methyl)-2,3-dihydro-5H-thiazolo[3,2-a]pyridine-3-carboxylic Acid] as the compound, how does the IC50 read?
Answer: > 25 µM

Question: For `O=C(O)C1CSc2c(C3CC3)c(-c3cc(-c4cccc5ccccc45)on3)cc(=O)n21` (racemic) [Compound 19a, (±) 8-Cyclopropyl-7-(5-(naphthalen-1-yl)isoxazol-3-yl)-5-oxo-2,3-dihydro-5H-thiazolo[3,2-a]pyridine-3-carboxylic Acid], which IC50 is on record?
Answer: 3.9 ± 1.43 µM

Question: With `O=C(O)C1CSc2c(C3CC3)c(-c3cc(C4CC4)no3)cc(=O)n21` (racemic) [Compound 17c, (±) 8-Cyclopropyl-7-(3-cyclopropylisoxazol-5-yl)-5-oxo-2,3-dihydro-5H-thiazolo[3,2-a]pyridine-3-carboxylic Acid] as the compound, how does the IC50 read?
Answer: > 25 µM

Question: For `O=C(O)C1CSc2c(C3CC3)c(-c3nc4ccccc4[nH]3)cc(=O)n21` (racemic) [Compound 10, (±) 7-(1H-benzo[d]imidazole-2-yl)-8-cyclopropyl-5-oxo-2,3-dihydro-5H-thiazolo[3,2-a]pyridine-3-carboxylic Acid], which IC50 is on record?
Answer: > 25 µM

Question: How did the IC50 turn out when `O=C(O)C1CSc2c(C3CC3)c(CSc3nnc(-c4ccco4)o3)cc(=O)n21` (racemic) [Compound 8k, (±) 8-Cyclopropyl-7-(((5-(furan-2-yl)-1,3,4-oxadiazol-2-yl)thio)methyl)-5-oxo-2,3-dihydro-5H-thiazolo[3,2-a]pyridine-3-carboxylic Acid] was run?
Answer: > 25 µM

Question: How did the IC50 turn out when `O=C(O)C1CSc2c(C3CC3)c(-c3cc(C4CCCCC4)no3)cc(=O)n21` (racemic) [Compound 17d, (±) 7-(3-Cyclohexylisoxazol-5-yl)-8-cyclopropyl-5-oxo-2,3-dihydro-5H-thiazolo[3,2-a]pyridine-3-carboxylic Acid] was run?
Answer: > 25 µM

Question: With `O=C(O)C1CSc2c(C3CC3)c(-c3nc4ccccc4o3)cc(=O)n21` (racemic) [Compound 13, (±) 7-(Benzo[d]oxazol-2-yl)-8-cyclopropyl-5-oxo-2,3-dihydro-5H-thiazolo[3,2-a]pyridine-3-carboxylic Acid] as the compound, how does the IC50 read?
Answer: > 25 µM

Question: `O=C(O)C1CSc2c(C3CC3)c(-c3cn(-c4cccc(C(F)(F)F)c4)nn3)cc(=O)n21` (racemic) [Compound 15b, (±) 8-Cyclopropyl-5-oxo-7-(1-(3-(trifluoromethyl)phenyl)-1H-1,2,3-triazol-4-yl)-2,3-dihydro-5H-thiazolo[3,2-a]pyridine-3-carboxylic Acid] was tested. Which IC50 did it give?
Answer: > 25 µM

Question: How did the IC50 turn out when `COc1cccc(-c2nnc(SCc3cc(=O)n4c(c3C3CC3)SCC4C(=O)O)o2)c1` (racemic) [Compound 8h, (±) 8-Cyclopropyl-7-(((5-(3-methoxyphenyl)-1,3,4-oxadiazol-2-yl)thio)methyl)-5-oxo-2,3-dihydro-5H-thiazolo[3,2-a]pyridine-3-carboxylic Acid] was run?
Answer: > 25 µM

Question: Which IC50 does the source give for `O=C(O)C1CSc2c(C3CC3)c(-c3cc(-c4cccc(C(F)(F)F)c4)on3)cc(=O)n21` (racemic) [Compound 19b, (±) 8-Cyclopropyl-5-oxo-7-(5-(3-(trifluoromethyl)phenyl)isoxazol-3-yl)-2,3-dihydro-5H-thiazolo[3,2-a]pyridine-3-carboxylic Acid] here?
Answer: 5.09 ± 1.3 µM

Question: Which IC50 does the source give for `O=C(O)C1CSc2c(C3CC3)c(-c3cc(-c4cccc5ccccc45)no3)cc(=O)n21` (racemic) [Compound 17a, (±) 8-Cyclopropyl-7-(3-(naphthalen-1-yl)isoxazol-5-yl)-5-oxo-2,3-dihydro-5H-thiazolo[3,2-a]pyridine-3-carboxylic Acid] here?
Answer: 1.86 ± 1.13 µM

Question: `O=C(O)C1CSc2c(C3CC3)c(-c3cc(-c4c5ccccc5cc5ccccc45)no3)cc(=O)n21` (racemic) [Compound 17i, (±) 7-(3-(Anthracen-9-yl)isoxazol-5-yl)-8-cyclopropyl-5-oxo-2,3-dihydro-5H-thiazolo[3,2-a]pyridine-3-carboxylic Acid] was tested. Which IC50 did it give?
Answer: 1.56 ± 0.31 µM

Same assay, conditions: read-out: MABA mean IC50 ± SD

Question: How did the IC50 turn out when `O=C(O)C1CSc2c(C3CC3)c(CSc3nnc(-c4ccc5ccccc5c4)o3)cc(=O)n21` (racemic) [Compound 8d, (±) 8-Cyclopropyl-7-(((5-(naphthalen-2-yl)-1,3,4-oxadiazol-2-yl)thio)methyl)-5-oxo-2,3-dihydro-5H-thiazolo[3,2-a]pyridine-3-carboxylic Acid] was run?
Answer: 3.53 ± 1.9 µM
